Laboratory results published in ChEMBL document CHEMBL4219026, “A Cereblon Modulator (CC-220) with Improved Degradation of Ikaros and Aiolos” (J Med Chem, 2018).
Activity calls are given as the source filed them. The rule behind the calls is not given here.

Assays:
[1] = biological target: Protein cereblon/Eukaryotic peptide chain release factor GTP-binding subunit ERF3A (Homo sapiens) (UniProt Q96SW2+P15170); experiment: Induction of cereblon-mediated GSPT1 degradation in human DF15 cells expressing ePL-tagged GSPT1 at 0.0005 to 10 uM after 4 hrs by luminometric analysis; format: cell-based
[2] = biological target: Cereblon/Casein kinase I alpha (Homo sapiens) (UniProt P48729+Q96SW2); experiment: Induction of cereblon-mediated CK1alpha (unknown origin) degradation in at 0.0005 to 10 uM after 4 hrs by cell-based chemiluminescent assay
Cereblon/Casein kinase I alpha (Homo sapiens), sequence (P48729 2-337 limits assumed): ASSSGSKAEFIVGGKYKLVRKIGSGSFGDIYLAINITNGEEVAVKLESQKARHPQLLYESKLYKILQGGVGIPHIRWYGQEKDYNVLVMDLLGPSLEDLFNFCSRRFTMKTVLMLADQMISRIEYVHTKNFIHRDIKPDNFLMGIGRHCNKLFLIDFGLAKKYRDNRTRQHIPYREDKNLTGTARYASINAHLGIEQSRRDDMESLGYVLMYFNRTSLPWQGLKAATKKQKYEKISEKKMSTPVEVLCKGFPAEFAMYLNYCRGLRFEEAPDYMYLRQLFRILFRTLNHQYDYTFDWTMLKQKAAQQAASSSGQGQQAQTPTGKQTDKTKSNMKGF
Cereblon/Casein kinase I alpha (Homo sapiens), sequence (Q96SW2 whole entry partner): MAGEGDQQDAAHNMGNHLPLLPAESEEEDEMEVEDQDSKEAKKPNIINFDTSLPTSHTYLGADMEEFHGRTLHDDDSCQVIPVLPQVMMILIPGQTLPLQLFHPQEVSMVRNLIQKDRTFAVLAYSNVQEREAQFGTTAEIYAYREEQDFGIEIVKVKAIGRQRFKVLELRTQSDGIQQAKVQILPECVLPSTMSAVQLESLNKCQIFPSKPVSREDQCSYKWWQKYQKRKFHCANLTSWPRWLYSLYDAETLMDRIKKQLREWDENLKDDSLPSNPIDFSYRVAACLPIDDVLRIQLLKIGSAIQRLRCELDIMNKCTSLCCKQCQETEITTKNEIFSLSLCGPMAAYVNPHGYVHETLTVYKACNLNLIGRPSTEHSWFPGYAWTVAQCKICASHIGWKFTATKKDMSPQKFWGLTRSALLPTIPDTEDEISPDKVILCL

Protein cereblon/Eukaryotic peptide chain release factor GTP-binding subunit ERF3A (Homo sapiens), sequence (P15170 whole entry, looked up): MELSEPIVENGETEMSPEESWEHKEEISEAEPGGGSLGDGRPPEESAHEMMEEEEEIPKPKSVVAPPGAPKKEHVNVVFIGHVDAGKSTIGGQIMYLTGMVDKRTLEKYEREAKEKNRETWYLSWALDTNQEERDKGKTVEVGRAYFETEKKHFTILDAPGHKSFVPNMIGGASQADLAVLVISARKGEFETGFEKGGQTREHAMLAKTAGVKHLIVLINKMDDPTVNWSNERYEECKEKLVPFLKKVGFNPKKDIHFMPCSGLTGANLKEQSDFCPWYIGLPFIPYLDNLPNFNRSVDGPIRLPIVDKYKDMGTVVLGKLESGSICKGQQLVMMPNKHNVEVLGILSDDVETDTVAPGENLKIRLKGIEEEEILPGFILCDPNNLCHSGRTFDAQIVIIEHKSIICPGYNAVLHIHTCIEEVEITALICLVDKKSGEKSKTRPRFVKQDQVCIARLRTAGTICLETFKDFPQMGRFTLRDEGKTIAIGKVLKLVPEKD
Protein cereblon/Eukaryotic peptide chain release factor GTP-binding subunit ERF3A (Homo sapiens), sequence (Q96SW2 whole entry, looked up): as the sequence (Q96SW2 whole entry partner) above

`O=C1CC[C@H](N2Cc3c(OCc4ccc(CN5CCOCC5)cc4)cccc3C2=O)C(=O)N1` was tested, and the Activity [1] was “inactive” and the Activity [2] was “inactive”.
